{"source": "paper PMC7156724", "about": "“Potent BRD4 inhibitor suppresses cancer cell-macrophage interaction” (Nature Communications, 2020)", "key": {"A2780 cells": {"system": "A2780 cells", "test": "Clonogenic (colony formation) assay, A2780", "type": "cell-based, human", "conditions": "A2780, 250 nM, 5 days", "protocol": "Fig. 2 NHWD-870 inhibited BRD4 phosphorylation and c-MYC expression, and suppressed cell growth. a Representative western blot analysis of p-BRD4 (s484/488), BRD4, c-MYC, and GAPDH after treatment of MDA-MB231, SUM159, A2780 ES-2, and H526 cells with JQ-1 or NHWD-870 at the indicated concentrations for 24 h. GAPDH served as the loading control. Selected from three independent experiments. b MTT assays of H526, A2780, ES-2, and MDA-MB231 cells treated with JQ-1 or NHWD-870 at the indicated concentrations for 5 days. Data are presented as mean ± SEM from three independent experiments. c, d Clonogenic assays of H526, A2780, ES-2 and MDA-MB231 cells treated with 250 nM JQ-1 or NHWD-870 for 5 days. Shown are representative images (c) and quantification of colonies (d). […] Shown are representative images (e) and quantification of relative colony sizes (f). Scale bar, 50 μm. Data are presented as mean ± SEM from five independent experiments. p values were calculated using two-tailed, unpaired t tests in this figure. **p < 0.01; ***p < 0.001. Source data are provided as a Source Data file. […]\n5. Colony formation assay. Cells were seeded in 6-well plates at 3,000 cells/well […]\nevery week. […] Colony numbers were calculated with imageJ version"}, "BRD4 (BD1+BD2)": {"molecular_target": "T1, BRD4 (BD1+BD2) (Homo sapiens, UniProt O60885)", "T1 construct": "purchased BPS 32612", "test": "BRD4 (BD1+BD2) TR-FRET binding assay", "conditions": "for Biochemical activity against BRD4 (BD1 + BD2): Fig.1d, replicates", "source_text": "2. BRD4 binding assay. The inhibitory effects of NHWD-530, NHWD-540, NHWD- […]\n(BPS, Cat # 32612) per manufacturer’s instructions. […]"}, "TAMs": {"system": "TAMs", "test": "Transwell 3D co-culture of pretreated A2780 cells and TAMs, spheroid volume", "type": "cell-based, mouse", "protocol": "(§1) A2780 tumor cells were pretreated with 100 nM NHWD-870 and then directly co-cultured with TAMs (A2780:TAMs ratio as 4:1) at the density of 1 × 10^5 total cells in a 12-well. Shown are immunofluorescent staining of Ki67 and CD68 (a) and quantification of Ki67+ and CD68− or CD68+ cells (b). Scale bar is 50 μm. […] A2780 cells (pre-treated with or without 100 nM NHWD-870 for 48 h) were seeded into the top chamber (transwell size: 0.4 μm) and TAMs (Mac, 40,000 cells per 24-well) in medium containing 2% matrigel were seeded into the bottom chamber pre-coated with Matrigel. No NHWD-870 was added to the co-culture. The upper chamber without A2780 cells was used as a control. Shown are schematics of transwell co-culture experiment (c), representative pictures of TAM spheroid (d: black/white), and quantification of spheroid volumes (e). Scale bar is 50 μm. […] Data are presented as mean ± SEM from three independent experiments. g CSF1 protein levels in supernatant of 10^6 ID8, B16, A2780, SKOV3, and A375 cells treated with DMSO or 25 nM NHWD-870 for 24 h, as measured by ELISA. […] Scale bar is 20 μm. i Quantification of CSF1 staining in DMSO or 100 nM NHWD-870 treated A2780 cells. […] Shown are representative immunofluorescent staining of CSF1 (green) and CD68 (red) (j) and quantification of CSF1 staining (k). […]"}, "[1]": {"system": "A2780 tumor cells and TAMs", "test": "Direct co-culture of pretreated A2780 cells with TAMs, Ki67/CD68 staining", "type": "cell-based, mouse", "protocol": "as §1"}, "[2]": {"test": "Equilibrium dialysis assay, SD rat plasma", "protocol": "The concentration was calculated using the peak area ratio of analyte and internal […]\nThe results were calculated by the following equations:\n% Unbound = 100 *FC / TC, % Bound = 100 * (1-FC / TC)\n% Recovery = 100 * (FC + TC) / T0\nTC = Total compound concentration as determined by the calculated concentration on the retentate side of the membrane\nFC = Free compound concentration as determined by the calculated concentration on the dialysate side of the membrane […]\nEquation of first order kinetics: […]\n8. Equilibrium dialysis assay. Binding with plasma protein and recovery rate of NHWD-870 were performed with human, CD-1 mouse and SD rat plasma as […]\ndescribed 2. […] The concentration was […]\ncalculated using the peak area ratio of analyte and internal standard. The results were calculated by the following equations: % Unbound = 100 *FC / TC, % Bound = 100 * (1-FC / TC); % Recovery = 100 * (FC + TC) / T0; TC = Total compound concentration as determined by the calculated concentration on the retentate side of the membrane; FC = Free compound concentration as determined by the (1 picture or pasted object on this page, not shown here) […]\ncalculated concentration on the dialysate side of the membrane; T0 = To t a l compound concentration as determined before dialysis. […]\n10. hERG channel assay. […]\nHEK293 cell line stably"}}, "note": "Where “and” joins values, the source holds several entries; their conditions need not be identical. Equal entries are not always repeated.", "data": [{"smiles": "Cc1nnn(C)c1-c1cnc2c3c4cnn(C)c4ccc3n([C@H](c3ccccc3)C3CCOCC3)c2c1", "note": "[NHWD-870]", "values": [{"measurement": "Clone Number (clonogenic assay)", "setting": "A2780 cells", "result": "378 and 355 and 313 and 209 and 273"}, {"measurement": "Biochemical activity against BRD4 (BD1 + BD2)", "setting": "BRD4 (BD1+BD2); concentration(nM) 0.0021442", "result": "0.8628 and 1.4579"}, {"measurement": "Biochemical activity against BRD4 (BD1 + BD2)", "setting": "BRD4 (BD1+BD2); concentration(nM) 0.061236", "result": "16.5754 and 12.5588"}, {"measurement": "Biochemical activity against BRD4 (BD1 + BD2)", "setting": "BRD4 (BD1+BD2); concentration(nM) 0.103", "result": "20.2946 and 25.6828"}, {"measurement": "Biochemical activity against BRD4 (BD1 + BD2)", "setting": "BRD4 (BD1+BD2); concentration(nM) 0.59176", "result": "60.3038 and 63.4692"}, {"measurement": "Biochemical activity against BRD4 (BD1 + BD2)", "setting": "BRD4 (BD1+BD2); concentration(nM) 1.19382", "result": "79.3053 and 83.6424"}, {"measurement": "Biochemical activity against BRD4 (BD1 + BD2)", "setting": "BRD4 (BD1+BD2); concentration(nM) 1.79588", "result": "95.9066 and 95.1156"}, {"measurement": "Biochemical activity against BRD4 (BD1 + BD2)", "setting": "BRD4 (BD1+BD2); concentration(nM) 2.39794", "result": "100.74 and 99.5542"}, {"measurement": "Biochemical activity against BRD4 (BD1 + BD2)", "setting": "BRD4 (BD1+BD2); concentration(nM) 3", "result": "101.339 and 101.804"}, {"measurement": "IC50", "setting": "BRD4 (BD1+BD2); average IC50, nM, read-out: IC50, biochemical activity against BRD4 (BD1 + BD2)", "result": "2.7 nM and 2.72 nM"}, {"measurement": "fold decrease of the growth of TAMs", "setting": "TAMs; 100 nM, 3-D culture, Fig 5c-e", "result": "about 8 fold"}, {"measurement": "ability of A2780 to support the growth of TAMs", "setting": "TAMs; A2780 pretreated with 100 nM, 3D co-culture", "result": "completely abolished the ability of A2780 to support the growth of TAMs"}, {"measurement": "quantification of Ki67+ and CD68+ cells", "setting": "[1]; A2780 pretreated with 100 nM, direct co-culture with TAMs", "result": 0}, {"measurement": "inhibition at 0.1 µM", "setting": "[1]; pre-treatment of A2780 cells with 100 nM, read-out: inhibition of the proliferation rate of TAMs", "result": 83, "unit": "%"}, {"measurement": "% Bound", "setting": "[2]; SD rat plasma, equilibrium dialysis", "result": 95.4, "unit": "%"}, {"measurement": "fraction unbound", "setting": "[2]; SD, rat, plasma", "result": 0.046}, {"measurement": "recovery", "setting": "[2]; SD, rat, plasma", "result": 92.5, "unit": "%"}]}]}
